Where two headings read alike, the source gives them in different places.
Key:
[1] = target: T1, human adenosine A2A receptor (Homo sapiens, UniProt P29274); assay: Adenosine A2A receptor binding test (3H-CGS21680 binding); conditions: compound at 100 nmol/L; Table 2, measured by Ricerca Biosciences, LLC; read-out: Inhibitory rate for human adenosine A2A receptor binding (3H-CGS21680 binding)
T1 construct: host or cells: HEK-293 cells (membranes)
Excerpt: Specifically, for example, human recombinant receptors are expressed in HEK-293 cells.
The inhibitory rate can be calculated by the following equation.

[2] = target: T2, human adenosine A1 receptor (Homo sapiens, UniProt P30542); assay: Adenosine A1 receptor binding test (3H-DPCPX binding); conditions: read-out: Inhibitory rate for human adenosine A1 receptor binding (3H-DPCPX binding)
T2 construct: host or cells: CHO cells (membranes)
T2 sequence (P30542 1-326): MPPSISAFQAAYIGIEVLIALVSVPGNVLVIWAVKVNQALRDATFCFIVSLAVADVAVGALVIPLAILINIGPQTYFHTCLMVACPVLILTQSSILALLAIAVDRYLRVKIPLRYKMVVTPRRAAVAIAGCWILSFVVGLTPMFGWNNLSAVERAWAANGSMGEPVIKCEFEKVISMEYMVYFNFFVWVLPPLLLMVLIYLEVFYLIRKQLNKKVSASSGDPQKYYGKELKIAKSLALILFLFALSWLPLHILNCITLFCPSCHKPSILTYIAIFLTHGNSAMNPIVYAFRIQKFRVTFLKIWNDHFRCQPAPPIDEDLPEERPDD
Excerpt: Specifically, for example, human A1 receptor-expressing CHO cell membranes are used, and, as the labeled compound, for example, tritium-labeled DPCPX (1,3-dipropyl-8-cyclopentylxanthine) is used. The amount of non-specific binding can be determined by measuring the ^3H-DPCPX bound radioactivity in the presence of, for example, 100 μmol/L of R(−)-PIA((−)-N^6-2-phenylisopropyl adenosine).

[3] = tested on: MPTP-treated common marmoset that developed motor complication; assay: Test Example 4: combination with L-DOPA in MPTP-treated common marmoset that developed motor complication; type: in vivo; conditions: 1 mg/kg compound combined with L-DOPA 2.5 mg/kg, gavage
Description: 10 mg/kg of L-DOPA (containing 2.5 mg/kg of benserazide hydrochloride) was administered by gavage to common marmoset that developed chronic parkinsonian symptoms by treatment with MPTP by the method described in Test Example 3 (MPTP-treated marmoset) twice a day at about 6 hr intervals. L-DOPA was repeatedly administered for more than 3 weeks to induction of motor complication (dyskinesia symptom, wearing-off phenomenon, on-off fluctuation and the like) in MPTP-treated marmoset in addition to parkinsonian symptoms, and the marmoset was used for the test. […] The locomotor activity was automatically measured using a computer by a measuring apparatus with a photocell. […] The subject animal was placed in an observation cage (with locomotor activity measuring apparatus) one day before the test compound administration for preconditioning to the environment. The symptoms of Parkinson's disease were continuously monitored through one-way mirror and disability score was scored each 10 min for 6 hr.

[4] = tested on: MPTP-treated common marmoset; assay: Test Example 3: combination with L-DOPA in MPTP-treated common marmoset, motor disability score; type: in vivo
Excerpt: Parkinson's disease is a disease based on the progressive degeneration and loss of dopaminergic neuron in substantia nigra-striatum. In primates, a treatment with MPTP, which is a dopamine neurotoxin, causes selective degeneration and loss of dopaminergic neuron in substantia nigra-striatum and induces symptoms of akinesia, muscle rigidity and the like. The primates treated with MPTP are known as the model of Parkinson's disease [Proceedings of the National Academy of Science USA, vol. 80, p. 4546 (1983)]. In addition, common marmoset belongs to Haplorhini and is known to show the symptoms of Parkinson's disease by MPTP, like other Haplorhini [Neuroscience Letter, vol. 57, p. 37 (1985)]. […] The parkinsonian symptoms were judged using the index described in a previous report [Annales of Neurology, vol. 43, p. 507 (1998)]. All compounds were used as a suspension in 0.5% MC400, 10% aqueous sucrose solution. The subject animal was placed in an observation cage (with locomotor activity measuring apparatus) one day before the test compound administration for preconditioning to the environment. The symptoms of Parkinson's disease were continuously monitored through one-way mirror and disability score was scored each 10 min for 6 hr.
The locomotor activity was automatically measured using a computer by a measuring apparatus with a photocell.

[5] = compound at 100 nmol/L, Table 2, measured by Ricerca Biosciences, LLC

T1 sequence (P29274 whole entry): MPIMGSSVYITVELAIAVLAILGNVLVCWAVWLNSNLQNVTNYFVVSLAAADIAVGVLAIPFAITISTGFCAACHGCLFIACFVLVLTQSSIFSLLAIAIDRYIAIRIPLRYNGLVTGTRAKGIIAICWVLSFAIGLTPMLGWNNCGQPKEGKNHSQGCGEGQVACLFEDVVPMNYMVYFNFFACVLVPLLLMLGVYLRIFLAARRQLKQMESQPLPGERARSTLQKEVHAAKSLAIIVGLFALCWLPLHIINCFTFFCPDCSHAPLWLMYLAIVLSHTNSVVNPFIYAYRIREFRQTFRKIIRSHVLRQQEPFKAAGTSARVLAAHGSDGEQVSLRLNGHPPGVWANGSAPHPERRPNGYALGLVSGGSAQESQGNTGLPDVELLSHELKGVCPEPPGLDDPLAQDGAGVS

Row | Compound | inhibition at 0.1 µM [1] | inhibition at 0.1 µM [2, 5] | further results
1 | O=C(Nc1nc(-c2ccoc2)c(C(=O)C2CCOCC2)s1)c1cnc2c(c1)CCC2 [(IAA), N-[4-(3-Furyl)-5-(tetrahydropyran-4-carbonyl)thiazol-2-yl]-6,7-dihydro-5H-cyclopenta[b]pyridine-3-carboxamide] | 98% | 9% | –
2 | C=Cc1ccc(C(=O)Nc2nc(-c3ccco3)c(C(=O)C3CCOCC3)s2)cn1 [(IE), N-[4-(2-Furyl)-5-(tetrahydropyran-4-carbonyl)thiazol-2-yl]-6-vinylpyridine-3-carboxamide] | 93% | 33% | –
3 | O=C(Cc1cccnc1)Nc1nc(-c2ccco2)c(C(=O)C2CCOCC2)s1 [(IF), N-[4-(2-Furyl)-5-(tetrahydropyran-4-carbonyl)thiazol-2-yl]-2-(pyridin-3-yl)acetamide] | 107% | 50% | –
4 | O=C(Nc1nc(-c2ccco2)c(C(=O)C2CCOCC2)s1)c1ccc[nH]1 [(IG), N-[4-(2-Furyl)-5-(tetrahydropyran-4-carbonyl)thiazol-2-yl]-1H-pyrrole-2-carboxamide] | 102% | 91% | –
5 | O=C(Nc1nc(-c2ccco2)c(C(=O)C2CCOCC2)s1)c1cccc2[nH]ccc12 [(IH), N-[4-(2-Furyl)-5-(tetrahydropyran-4-carbonyl)thiazol-2-yl]-1H-indole-4-carboxamide] | 98% | 67% | –
6 | O=C(Nc1nc(-c2ccco2)c(C(=O)C2CCOCC2)s1)c1ccnc(CN2CCOCC2)c1 [(II), N-[4-(2-Furyl)-5-(tetrahydropyran-4-carbonyl)thiazol-2-yl]-2-(morpholin-4-ylmethyl)pyridine-4-carboxamide] | 85% | 19% | –
7 | COCc1cc(C(=O)Nc2nc(-c3ccco3)c(C(=O)C3CCOCC3)s2)ccn1 [(IJ), N-[4-(2-Furyl)-5-(tetrahydropyran-4-carbonyl)thiazol-2-yl]-2-methoxymethylpyridine-4-carboxamide] | 93% | 21% | –
8 | CCOCc1cc(C(=O)Nc2nc(-c3ccco3)c(C(=O)C3CCOCC3)s2)ccn1 [(IK), 2-Ethoxymethyl-N-[4-(2-furyl)-5-(tetrahydropyran-4-carbonyl)thiazol-2-yl]pyridine-4-carboxamide] | 92% | 24% | –
9 | CC(C)OCc1cc(C(=O)Nc2nc(-c3ccco3)c(C(=O)C3CCOCC3)s2)ccn1 [(IL), N-[4-(2-Furyl)-5-(tetrahydropyran-4-carbonyl)thiazol-2-yl]-2-isopropoxymethylpyridine-4-carboxamide] | 85% | 20% | –
10 | O=C(Nc1nc(-c2ccco2)c(C(=O)C2CCOCC2)s1)c1cnc2occc2c1 [(IM), N-[4-(2-Furyl)-5-(tetrahydropyran-4-carbonyl)thiazol-2-yl]furo[2,3-b]pyridine-5-carboxamide] | 98% | 47% | –
11 | O=C(Cc1ccccn1)Nc1nc(-c2ccco2)c(C(=O)C2CCOCC2)s1 [(IN), N-[4-(2-Furyl)-5-(tetrahydropyran-4-carbonyl)thiazol-2-yl]-2-(pyridin-2-yl)acetamide] | 93% | 21% | –
12 | COc1ccc(C(=O)Nc2nc(-c3ccco3)c(C(=O)C3CCOCC3)s2)cn1 [(IO), N-[4-(2-Furyl)-5-(tetrahydropyran-4-carbonyl)thiazol-2-yl]-6-methoxypyridine-3-carboxamide] | 97% | 56% | –
13 | O=C(Nc1nc(-c2ccco2)c(C(=O)C2CCOCC2)s1)c1cnc2ccccc2c1 [(IP), N-[4-(2-Furyl)-5-(tetrahydropyran-4-carbonyl)thiazol-2-yl]quinoline-3-carboxamide] | 98% | 18% | –
14 | Cc1cc(C(=O)Nc2nc(-c3ccco3)c(C(=O)C3CCOCC3)s2)cnc1C [(IQ), N-[4-(2-Furyl)-5-(tetrahydropyran-4-carbonyl)thiazol-2-yl]-5,6-dimethylpyridine-3-carboxamide] | 100% | 18% | –
15 | CCc1cncc(C(=O)Nc2nc(-c3ccco3)c(C(=O)C3CCOCC3)s2)c1 [(IR), 5-Ethyl-N-[4-(2-furyl)-5-(tetrahydropyran-4-carbonyl)thiazol-2-yl]pyridine-3-carboxamide] | 107% | 30% | –
16 | O=C(Nc1nc(-c2ccco2)c(C(=O)C2CCOCC2)s1)c1cnc2c(c1)COCC2 [(IS), N-[4-(2-Furyl)-5-(tetrahydropyran-4-carbonyl)thiazol-2-yl]-7,8-dihydro-5H-pyrano[4,3-b]pyridine-3-carboxamide] | 90% | 10% | –
17 | O=C(Nc1nc(-c2ccco2)c(C(=O)C2CCOCC2)s1)c1cnc2c(c1)CCC2 [(IT), N-[4-(2-Furyl)-5-(tetrahydropyran-4-carbonyl)thiazol-2-yl]-6,7-dihydro-5H-cyclopenta[b]pyridine-3-carboxamide] | 91% | 37% | –
18 | O=C(Nc1nc(-c2ccco2)c(C(=O)C2CCOCC2)s1)c1cc2ccccc2[nH]1 [(IU), N-[4-(2-Furyl)-5-(tetrahydropyran-4-carbonyl)thiazol-2-yl]-1H-indole-2-carboxamide] | 110% | 36% | –
19 | CCc1ccc(C(=O)Nc2nc(-c3ccco3)c(C(=O)C3CCOCC3)s2)cn1 [(IV), 6-Ethyl-N-[4-(2-furyl)-5-(tetrahydropyran-4-carbonyl)thiazol-2-yl]pyridine-3-carboxamide] | 98% | 23% | –
20 | CCCc1ccc(C(=O)Nc2nc(-c3ccco3)c(C(=O)C3CCOCC3)s2)cn1 [(IW), N-[4-(2-Furyl)-5-(tetrahydropyran-4-carbonyl)thiazol-2-yl]-6-propylpyridine-3-carboxamide] | 98% | 23% | –
21 | O=C(Nc1nc(-c2ccco2)c(C(=O)C2CCOCC2)s1)c1cnc2c(c1)CSCC2 [(IX), N-[4-(2-Furyl)-5-(tetrahydropyran-4-carbonyl)thiazol-2-yl]-7,8-dihydro-5H-thiopyrano[4,3-b]pyridine-3-carboxamide] | 101% | 18% | –
22 | CC(=O)c1cc(C(=O)Nc2nc(-c3ccco3)c(C(=O)C3CCOCC3)s2)cnc1C [(IY), 5-Acetyl-N-[4-(2-furyl)-5-(tetrahydropyran-4-carbonyl)thiazol-2-yl]-6-methylpyridine-3-carboxamide] | 97% | 8% | –
23 | CCc1cncc(C(=O)Nc2nc(-c3ccoc3)c(C(=O)C3CCOCC3)s2)c1 [(IZ), 5-Ethyl-N-[4-(3-furyl)-5-(tetrahydropyran-4-carbonyl)thiazol-2-yl]pyridine-3-carboxamide] | 102% | 21% | –
24 | Cc1ccc(C(=O)Nc2nc(-c3ccco3)c(C(=O)C3CCOCC3)s2)cn1 [Compound (IC)] | – | – | duration (on-time) of anti-parkinsonian activities of L-DOPA [3]: about 150 min; minimum disability score [3]: 3.83±0.17; duration of anti-parkinsonian activity of L-DOPA ([4]; 1 mg/kg compound co-administered orally with L-DOPA 2.5, 5.0, 7.5 and 10.0 mg/kg): prolonged the anti-parkinsonian activity of L-DOPA; maximum effects of L-DOPA (minimum motor disability score) ([4]; 1 mg/kg compound co-administered orally with L-DOPA 2.5, 5.0, 7.5 and 10.0 mg/kg, versus L-DOPA alone): enhanced maximum effects of L-DOPA alone; action expression time (on-time) ([4]; 1 mg/kg compound plus 10 mg/kg L-DOPA orally, compared to 10 mg/kg L-DOPA alone): increased; inhibition at 0.1 µM [2]: 29%

— patent publication US10407440B2, “Therapeutic agent for motor disorders” (KYOWA HAKKO KIRIN CO., LTD., priority 2009, dated 2019)
